# Measured values from patent US20230118152A1, “FORMS OF 5-({[2-AMINO-3-(4-CARBAMOYL-2,6-DIMETHYL-PHENYL)-PROPIONYL]-[1-(4-PHENYL-1H-IMIDAZOL-2-YL)-ETHYL]-AMINO}-METHYL)-2-METHOXY-BENZOIC ACID” (Allergan Holdings Unlimited Company, priority 2020, published 2023).
# Experiment: Slurry experiments in water (physical form stability)
# Type: physicochemical
# Method: Form H3 may be formed by slurrying Form A in water. Form H3 may convert back to Form A with some minor amorphous contents within some time, and completely convert to amorphous phase upon further slurrying within further time.
# Form H3 was prepared by slurry of Form A in water upon stirring. Form H3 converted back to Form A with some minor amorphous content within 2 days, and completely converted to amorphous phase upon slurry within 8 days. After additional 7 days (i.e. day 15 of slurry experiments), the amorphous phase converted further to Form D (tetrahydrate) with high crystallinity.
SMILES,"solid form conversion when suspended in water (suspended in water, trihydrate form (H3) and tetrahydrate (Form D))",time for complete conversion to amorphous phase (slurry in water upon stirring) [days],time for conversion back to Form A with some minor amorphous content (slurry in water upon stirring) [days]
"COc1ccc(CN(C(=O)C(N)Cc2c(C)cc(C(N)=O)cc2C)C(C)c2nc(-c3ccccc3)c[nH]2)cc1C(=O)O (stereo not drawn) [Form A, 5-({[2-Amino-3-(4-carbamoyl-2,6-dimethyl-phenyl)-propionyl]-[1-(4-phenyl-1H-imidazol-2-yl)-ethyl]-amino}-methyl)-2-methoxy-benzoic acid]",converts to hydrated crystalline forms,–,–
"COc1ccc(CN(C(=O)C(N)Cc2c(C)cc(C(N)=O)cc2C)C(C)c2nc(-c3ccccc3)c[nH]2)cc1C(=O)O (stereo not drawn) [Form H3, 5-({[2-amino-3-(4-carbamoyl-2,6-dimethyl-phenyl)-propionyl]-[1-(4-phenyl-1H-imidazol-2-yl)-ethyl]-amino}-methyl)-2-methoxy-benzoic acid]",–,≤ 8,≤ 2
